Measured values from the supplement of paper PMC10307832.

What was measured:
Experiment in all cases: relative viability (nuclei count vs DMSO), 5 days (fraction); higher = more cells survive
Nelarabine + Palbociclib = compound: COc1nc(N)nc2c1ncn2[C@@H]1O[C@H](CO)[C@@H](O)[C@@H]1O [Nelarabine] + CC(=O)c1c(C)c2cnc(Nc3ccc(N4CCNCC4)cn3)nc2n(C2CCCC2)c1=O [Palbociclib] (partner 0.5 µM)
Procedure, shortened: (§1)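 After 5 days of treatment, lung cancer cells in 1536-well plates were fixed and stained in a single step (final 0.05% Triton X-100, 1% formaldehyde, 1 ug/ml Hoechst) and their nuclei counted on 4× images. Treatment had been applied by pin tool the day after seeding as one drug alone or as a fixed anchor-drug dose with five library-drug doses (not always all listed) in √10 steps. Relative viability is the nuclei count of treated wells divided by that of vehicle wells, and values are medians of duplicate plates.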

Nelarabine + Bortezomib = compound: COc1nc(N)nc2c1ncn2[C@@H]1O[C@H](CO)[C@@H](O)[C@@H]1O [Nelarabine] + CC(C)C[C@H](NC(=O)[C@H](Cc1ccccc1)NC(=O)c1cnccn1)B(O)O [Bortezomib] (partner 0.002 µM)
Procedure, shortened: as §1

Nelarabine + AZD7762 = compound: COc1nc(N)nc2c1ncn2[C@@H]1O[C@H](CO)[C@@H](O)[C@@H]1O [Nelarabine] + NC(=O)Nc1cc(-c2cccc(F)c2)sc1C(=O)N[C@H]1CCCNC1 [AZD7762] (partner 0.2 µM)
Procedure, shortened: as §1

Adavosertib + Alpelisib = compound: C=CCn1c(=O)c2cnc(Nc3ccc(N4CCN(C)CC4)cc3)nc2n1-c1cccc(C(C)(C)O)n1 [Adavosertib] + Cc1nc(NC(=O)N2CCC[C@H]2C(N)=O)sc1-c1ccnc(C(C)(C)C(F)(F)F)c1 [Alpelisib] (partner 2 µM)
Procedure, shortened: as §1

Row | Cell Line | relative viability (Nelarabine + Palbociclib; first compound 0.01 µM) | relative viability (Nelarabine + Palbociclib; first compound 0.03162 µM) | relative viability (Nelarabine + Palbociclib; first compound 0.1 µM) | relative viability (Nelarabine + Palbociclib; first compound 0.3162 µM) | relative viability (Nelarabine + Palbociclib; first compound 1 µM) | relative viability (Nelarabine + Bortezomib; first compound 0.01 µM) | relative viability (Nelarabine + Bortezomib; first compound 0.03162 µM) | relative viability (Nelarabine + Bortezomib; first compound 0.1 µM) | relative viability (Nelarabine + Bortezomib; first compound 0.3162 µM) | relative viability (Nelarabine + Bortezomib; first compound 1 µM) | relative viability (Nelarabine + AZD7762; first compound 0.01 µM) | relative viability (Nelarabine + AZD7762; first compound 0.03162 µM) | relative viability (Nelarabine + AZD7762; first compound 0.1 µM) | relative viability (Nelarabine + AZD7762; first compound 0.3162 µM) | relative viability (Nelarabine + AZD7762; first compound 1 µM) | relative viability (Adavosertib + Alpelisib; first compound 0.01 µM) | relative viability (Adavosertib + Alpelisib; first compound 0.03162 µM) | relative viability (Adavosertib + Alpelisib; first compound 0.1 µM) | relative viability (Adavosertib + Alpelisib; first compound 0.3162 µM)
1 | LOU-NH91 | 0.576 | 0.47 | 0.524 | 0.618 | 0.578 | 0.447 | 0.519 | 0.553 | 0.474 | 0.513 | 0.868 | 0.69 | 0.78 | 0.732 | 0.69 | 0.704 | 0.758 | 0.731 | 0.66
2 | SW 900 | 0.567 | 0.604 | 0.504 | 0.6 | 0.593 | – | – | – | – | – | 0.636 | 0.569 | 0.556 | 0.645 | 0.535 | – | – | – | –
3 | 201T | 0.391 | 0.352 | 0.409 | 0.389 | 0.351 | 1.11 | 1.02 | 1.12 | 1.15 | 1.08 | 0.774 | 0.547 | 0.609 | 0.653 | 0.612 | 0.986 | 1.03 | 0.94 | 0.962
4 | NCI-H1793 | 0.353 | – | 0.316 | 0.398 | 0.318 | – | – | – | – | – | 0.557 | – | 0.319 | 0.748 | 0.436 | 0.746 | 0.6 | 0.752 | 0.637
5 | LXF-289 | 0.708 | 0.548 | 0.62 | 0.625 | 0.59 | 1.13 | 0.99 | 0.995 | 1 | 1.01 | 1.22 | 1.14 | 1.02 | 1.17 | 1 | 1.08 | 1.01 | 1.09 | 1.07
6 | ChaGo-K-1 | 0.939 | 0.815 | 0.964 | 0.989 | 0.876 | 0.997 | 0.85 | 1.26 | 0.93 | 0.925 | 1 | 0.715 | 0.871 | 0.985 | 0.821 | – | – | – | –
7 | SK-MES-1 | 0.3 | 0.327 | 0.305 | 0.316 | 0.354 | – | – | – | – | – | – | – | – | – | – | 0.956 | 0.844 | 0.924 | 0.618
8 | Calu-6 | – | – | – | – | – | 1.1 | – | 1.05 | 0.947 | 1.08 | – | – | – | – | – | 0.983 | 0.856 | 0.94 | 0.793
9 | COR-L 105 | 0.383 | 0.354 | 0.43 | 0.385 | 0.421 | 1.02 | 0.912 | 0.683 | 0.678 | 0.979 | – | – | – | – | – | 1.05 | 1.12 | 0.972 | 0.798
10 | NCI-H1648 | – | 0.27 | – | 0.292 | 0.215 | – | – | – | – | – | – | 0.597 | – | 0.638 | 0.664 | – | – | – | –
11 | NCI-H596 | – | – | – | – | – | 0.906 | 0.651 | 1.28 | 0.96 | 0.982 | 1.2 | 1.01 | 1.05 | 1.22 | 1.23 | 0.51 | 0.464 | 0.457 | 0.422
12 | NCI-H2009 | 0.194 | 0.206 | 0.203 | 0.161 | 0.192 | 1.24 | 1.09 | 0.952 | 1.03 | 1.06 | – | – | – | – | – | 1.13 | 1.22 | 1.13 | 1.17
